Results: ChEMBL document CHEMBL4251615, “Discovery of anilino-furo[2,3-d]pyrimidine derivatives as dual inhibitors of EGFR/HER2 tyrosine kinase and their anticancer activity” (Eur J Med Chem, 2018)

Columns and labels:
NCI-H460 = test: Growth inhibition of human NCI-H460 cells assessed as cell growth at 10 uM incubated for 48 hrs by sulforhodamine B assay relative to control; assay type: functional; settings: NCI-H460, 48 h, read-out: Activity
RXF 393 = test: Growth inhibition of human RXF393 cells assessed as cell growth at 10 uM incubated for 48 hrs by sulforhodamine B assay relative to control; assay type: functional; settings: RXF 393, 48 h, read-out: Activity
LOX IMVI = test: Growth inhibition of human LOXIMVI cells assessed as cell growth at 10 uM incubated for 48 hrs by sulforhodamine B assay relative to control; assay type: functional; settings: read-out: Activity
CAKI-1 = test: Growth inhibition of human Caki1 cells assessed as cell growth at 10 uM incubated for 48 hrs by sulforhodamine B assay relative to control; assay type: functional; settings: CAKI-1, 48 h, read-out: Activity
NCI/ADR-RES = test: Growth inhibition of human NCI/ADR-RES cells assessed as cell growth at 10 uM incubated for 48 hrs by sulforhodamine B assay relative to control; assay type: functional; settings: read-out: Activity
NCI-H226 = test: Growth inhibition of human NCI-H226 cells assessed as cell growth at 10 uM incubated for 48 hrs by sulforhodamine B assay relative to control; assay type: functional; settings: NCI-H226, 48 h, read-out: Activity
OVCAR-4 = test: Growth inhibition of human OVCAR4 cells assessed as cell growth at 10 uM incubated for 48 hrs by sulforhodamine B assay relative to control; assay type: functional; settings: OVCAR-4, 48 h, read-out: Activity
T47D = test: Growth inhibition of human T47D cells assessed as cell growth at 10 uM incubated for 48 hrs by sulforhodamine B assay relative to control; assay type: functional; settings: read-out: Activity
MDA-MB-231 = test: Growth inhibition of human MDA-MB-231 cells assessed as cell growth at 10 uM incubated for 48 hrs by sulforhodamine B assay relative to control; assay type: functional; settings: MDA-MB-231, 48 h, read-out: Activity
OVCAR-3 = test: Growth inhibition of human OVCAR3 cells assessed as cell growth at 10 uM incubated for 48 hrs by sulforhodamine B assay relative to control; assay type: functional; settings: OVCAR-3, 48 h, read-out: Activity
A498 = test: Growth inhibition of human A498 cells assessed as cell growth at 10 uM incubated for 48 hrs by sulforhodamine B assay relative to control; assay type: functional; settings: A498, 48 h, read-out: Activity
HOP-62 = test: Growth inhibition of human HOP62 cells assessed as cell growth at 10 uM incubated for 48 hrs by sulforhodamine B assay relative to control; assay type: functional; settings: HOP-62, 48 h, read-out: Activity
NCI-H322M = test: Growth inhibition of human NCI-H322M cells assessed as cell growth at 10 uM incubated for 48 hrs by sulforhodamine B assay relative to control; assay type: functional; settings: read-out: Activity
U-251 = test: Growth inhibition of human U251 cells assessed as cell growth at 10 uM incubated for 48 hrs by sulforhodamine B assay relative to control; assay type: functional; settings: U-251, 48 h, read-out: Activity
ACHN = test: Growth inhibition of human ACHN cells assessed as cell growth at 10 uM incubated for 48 hrs by sulforhodamine B assay relative to control; assay type: functional; settings: read-out: Activity
MDA-MB-468 = test: Growth inhibition of human MDA-MB-468 cells assessed as cell growth at 10 uM incubated for 48 hrs by sulforhodamine B assay relative to control; assay type: functional; settings: MDA-MB-468, 48 h, read-out: Activity
SF-539 = test: Growth inhibition of human SF539 cells assessed as cell growth at 10 uM incubated for 48 hrs by sulforhodamine B assay relative to control; assay type: functional; settings: SF-539, 48 h, read-out: Activity
SF-268 = test: Growth inhibition of human SF268 cells assessed as cell growth at 10 uM incubated for 48 hrs by sulforhodamine B assay relative to control; assay type: functional; settings: SF-268, 48 h, read-out: Activity
HOP-92 = test: Growth inhibition of human HOP92 cells assessed as cell growth at 10 uM incubated for 48 hrs by sulforhodamine B assay relative to control; assay type: functional; settings: HOP-92, 48 h, read-out: Activity
BT-549 = test: Growth inhibition of human BT549 cells assessed as cell growth at 10 uM incubated for 48 hrs by sulforhodamine B assay relative to control; assay type: functional; settings: BT-549, 48 h, read-out: Activity
SNB-19 = test: Growth inhibition of human SNB19 cells assessed as cell growth at 10 uM incubated for 48 hrs by sulforhodamine B assay relative to control; assay type: functional; settings: SNB-19, 48 h, read-out: Activity
[1] = molecular target: Epidermal growth factor receptor (Homo sapiens, UniProt P00533); test: Inhibition of recombinant human C-terminal His/N-terminal GST-tagged EGFR (668 to 1210 residues) expressed in baculovirus infected Sf9 cells at 10 uM using biotin-labeled poly[Glu:Tyr] (4:1) as substrate after 30 mins by Kinase-Glo plus luminescence assay relative to control
K562 = test: Growth inhibition of human K562 cells assessed as cell growth at 10 uM incubated for 48 hrs by sulforhodamine B assay relative to control; assay type: functional; settings: K562, 48 h, read-out: Activity
MCF7 = test: Growth inhibition of human MCF7 cells assessed as cell growth at 10 uM incubated for 48 hrs by sulforhodamine B assay relative to control; assay type: functional; settings: MCF7, 48 h, read-out: Activity
HCT-15 = test: Growth inhibition of human HCT15 cells assessed as cell growth at 10 uM incubated for 48 hrs by sulforhodamine B assay relative to control; assay type: functional; settings: HCT-15, 48 h, read-out: Activity
SF-295 = test: Growth inhibition of human SF295 cells assessed as cell growth at 10 uM incubated for 48 hrs by sulforhodamine B assay relative to control; assay type: functional; settings: SF-295, 48 h, read-out: Activity

Chain of Epidermal growth factor receptor (P00533 whole entry, the tested form may be a part): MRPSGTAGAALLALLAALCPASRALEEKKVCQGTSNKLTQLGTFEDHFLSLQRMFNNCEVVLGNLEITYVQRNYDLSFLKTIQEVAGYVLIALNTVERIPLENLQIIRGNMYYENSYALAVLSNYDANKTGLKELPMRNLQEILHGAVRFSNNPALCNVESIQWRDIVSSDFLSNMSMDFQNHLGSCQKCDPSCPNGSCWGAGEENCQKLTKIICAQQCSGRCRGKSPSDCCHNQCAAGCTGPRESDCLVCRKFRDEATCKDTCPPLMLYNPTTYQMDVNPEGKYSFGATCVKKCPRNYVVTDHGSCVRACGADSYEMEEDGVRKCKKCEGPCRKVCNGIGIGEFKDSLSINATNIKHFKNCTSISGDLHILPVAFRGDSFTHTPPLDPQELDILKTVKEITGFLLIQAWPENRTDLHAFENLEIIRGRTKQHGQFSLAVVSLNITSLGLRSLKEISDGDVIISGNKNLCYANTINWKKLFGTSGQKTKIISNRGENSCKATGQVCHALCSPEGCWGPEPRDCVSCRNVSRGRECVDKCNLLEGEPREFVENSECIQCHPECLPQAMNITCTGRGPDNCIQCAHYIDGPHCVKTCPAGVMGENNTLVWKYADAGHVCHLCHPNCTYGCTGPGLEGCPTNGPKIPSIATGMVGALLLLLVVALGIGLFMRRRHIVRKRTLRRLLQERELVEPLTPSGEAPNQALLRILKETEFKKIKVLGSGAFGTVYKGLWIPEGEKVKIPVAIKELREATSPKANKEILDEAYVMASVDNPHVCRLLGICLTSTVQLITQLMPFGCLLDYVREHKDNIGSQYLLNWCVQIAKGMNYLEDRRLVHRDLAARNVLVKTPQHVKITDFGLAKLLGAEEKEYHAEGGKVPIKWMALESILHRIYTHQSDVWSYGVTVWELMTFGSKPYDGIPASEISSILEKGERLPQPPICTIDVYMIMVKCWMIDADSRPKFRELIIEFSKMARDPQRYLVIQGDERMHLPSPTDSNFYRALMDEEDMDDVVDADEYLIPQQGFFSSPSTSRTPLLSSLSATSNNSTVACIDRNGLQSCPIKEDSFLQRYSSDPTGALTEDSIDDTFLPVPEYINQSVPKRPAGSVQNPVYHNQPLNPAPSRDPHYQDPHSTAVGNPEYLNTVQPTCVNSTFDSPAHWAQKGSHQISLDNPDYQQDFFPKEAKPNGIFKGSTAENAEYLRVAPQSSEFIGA

## Cc1oc2ncnc(Nc3cccc(F)c3)c2c1C(=O)NCCO
NCI-H460
  growth at 10 µM: 105%
RXF 393
  growth at 10 µM: 109%
LOX IMVI
  growth at 10 µM: 100%
CAKI-1
  growth at 10 µM: 90.5%
NCI/ADR-RES
  growth at 10 µM: 114%
NCI-H226
  growth at 10 µM: 106%
OVCAR-4
  growth at 10 µM: 108%
T47D
  growth at 10 µM: 95.4%
MDA-MB-231
  growth at 10 µM: 91.2%
OVCAR-3
  growth at 10 µM: 107%
A498
  growth at 10 µM: 83%
HOP-62
  growth at 10 µM: 97.4%
NCI-H322M
  growth at 10 µM: 104%
U-251
  growth at 10 µM: 104%
ACHN
  growth at 10 µM: 103%
MDA-MB-468
  growth at 10 µM: 106%
SF-539
  growth at 10 µM: 90.9%
SF-268
  growth at 10 µM: 101%
HOP-92
  growth at 10 µM: 101%
BT-549
  growth at 10 µM: 96.3%
SNB-19
  growth at 10 µM: 104%
[1]
  inhibition: 20%

## Cc1cccc(Nc2ncnc3oc(C)c(C(=O)NCCO)c23)c1
NCI-H460
  growth at 10 µM: 102%
RXF 393
  growth at 10 µM: 81.1%
LOX IMVI
  growth at 10 µM: 93%
CAKI-1
  growth at 10 µM: 87.2%
NCI/ADR-RES
  growth at 10 µM: 92.4%
NCI-H226
  growth at 10 µM: 93.3%
OVCAR-4
  growth at 10 µM: 95%
T47D
  growth at 10 µM: 84.3%
MDA-MB-231
  growth at 10 µM: 84.1%
K562
  growth at 10 µM: 90.2%
OVCAR-3
  growth at 10 µM: 108%
A498
  growth at 10 µM: 74.7%
HOP-62
  growth at 10 µM: 98.2%
MCF7
  growth at 10 µM: 94.8%
HCT-15
  growth at 10 µM: 93.7%
NCI-H322M
  growth at 10 µM: 95%
U-251
  growth at 10 µM: 105%
ACHN
  growth at 10 µM: 94.8%
MDA-MB-468
  growth at 10 µM: 87%
SF-539
  growth at 10 µM: 92.5%
SF-268
  growth at 10 µM: 98.4%
HOP-92
  growth at 10 µM: 94.1%
BT-549
  growth at 10 µM: 90.7%
SF-295
  growth at 10 µM: 96.3%
SNB-19
  growth at 10 µM: 103%
[1]
  inhibition: 36%

## CCOC(=O)c1c(C)oc2ncnc(Nc3ccc(F)c(Cl)c3)c12
NCI-H460
  growth at 10 µM: 106%
RXF 393
  growth at 10 µM: 101%
LOX IMVI
  growth at 10 µM: 103%
CAKI-1
  growth at 10 µM: 106%
NCI/ADR-RES
  growth at 10 µM: 107%
NCI-H226
  growth at 10 µM: 94.6%
OVCAR-4
  growth at 10 µM: 118%
T47D
  growth at 10 µM: 83.8%
MDA-MB-231
  growth at 10 µM: 101%
K562
  growth at 10 µM: 93.8%
OVCAR-3
  growth at 10 µM: 116%
A498
  growth at 10 µM: 87.4%
HOP-62
  growth at 10 µM: 101%
MCF7
  growth at 10 µM: 104%
HCT-15
  growth at 10 µM: 112%
NCI-H322M
  growth at 10 µM: 101%
U-251
  growth at 10 µM: 91.8%
ACHN
  growth at 10 µM: 112%
MDA-MB-468
  growth at 10 µM: 112%
SF-539
  growth at 10 µM: 104%
SF-268
  growth at 10 µM: 97.6%
HOP-92
  growth at 10 µM: 72.1%
BT-549
  growth at 10 µM: 101%
SF-295
  growth at 10 µM: 97%
SNB-19
  growth at 10 µM: 100%
[1]
  inhibition: 10%
